Reference: ChEMBL document CHEMBL4828735, “Discovery of N-((3S,4S)-4-(3,4-Difluorophenyl)piperidin-3-yl)-2-fluoro-4-(1-methyl-1H-pyrazol-5-yl)benzamide (Hu7691), a Potent and Selective Akt Inhibitor That Enables Decrease of Cutaneous Toxicity” (J Med Chem, 2021)
Calls of active or inactive are those of the source. No cut-off for these calls is given here.

What was measured:
OVCAR-8 = test: Antiproliferative activity against human OVCAR-8 cells assessed as inhibition of cell growth incubated for 72 hrs by SRB method; assay type: functional, cell-based; conditions: OVCAR-8, 72 h
[1] = Antiproliferative activity against human 95-D cells assessed as inhibition of cell growth incubated for 72 hrs by SRB method; assay type: functional, cell-based
A549 = test: Antiproliferative activity against human A549 cells assessed as inhibition of cell growth incubated for 72 hrs by SRB method; assay type: functional, cell-based; conditions: A549, 72 h
NCI-H1975 = test: Antiproliferative activity against human NCI-H1975 cells assessed as inhibition of cell growth incubated for 72 hrs by SRB method; assay type: functional, cell-based; conditions: NCI-H1975, 72 h
Bel-7402 = test: Antiproliferative activity against human Bel-7402 cells assessed as inhibition of cell growth incubated for 72 hrs by SRB method; assay type: functional, cell-based; conditions: Bel-7402, 72 h
SK-OV-3 = test: Antiproliferative activity against human SK-OV-3 cells assessed as inhibition of cell growth incubated for 72 hrs by SRB method; assay type: functional, cell-based; conditions: SK-OV-3, 72 h
HaCaT [2] = test: Induction of apoptosis in human HaCaT cells transfected with shAKT2 assessed as decrease in cleaved caspase 3 level by Western blot analysis; assay type: functional, cell-based
HaCaT [3] = test: Induction of apoptosis in human HaCaT cells assessed as viable cells at 9 uM by flow cytometry analysis (reference value: 79.16%); assay type: functional; conditions: read-out: Activity
HaCaT [4] = test: Induction of apoptosis in human HaCaT cells transfected with shAKT3 assessed as viable cells at 9 uM by flow cytometry analysis (reference value: 78.17%); assay type: functional; conditions: read-out: Activity
HT-29 = test: Antiproliferative activity against human HT-29 cells assessed as inhibition of cell growth incubated for 72 hrs by SRB method; assay type: functional, cell-based; conditions: HT-29, 72 h
HaCaT [5] = test: Induction of apoptosis in human HaCaT cells transfected with shAKT3 assessed as early apoptotic cells at 9 uM by flow cytometry analysis (reference value: 0.44%); assay type: functional
U-251 = test: Antiproliferative activity against human U251 cells assessed as inhibition of cell growth incubated for 72 hrs by SRB method; assay type: functional, cell-based; conditions: U-251, 72 h
HaCaT [6] = test: Induction of apoptosis in human HaCaT cells transfected with shAKT1 assessed as late apoptotic cells at 9 uM by flow cytometry analysis (reference value: 18.52%); assay type: functional
HaCaT [7] = test: Induction of apoptosis in human HaCaT cells transfected with shAKT3 assessed as necrotic cells at 9 uM by flow cytometry analysis (reference value: 3.84%); assay type: functional
HepG2 = test: Antiproliferative activity against human HepG2 cells assessed as inhibition of cell growth incubated for 72 hrs by SRB method; assay type: functional, cell-based; conditions: HepG2, 72 h
PC-3 = test: Antiproliferative activity against human PC3 cells assessed as inhibition of cell growth incubated for 72 hrs by SRB method; assay type: functional, cell-based; conditions: PC-3, 72 h
HaCaT [8] = test: Induction of apoptosis in human HaCaT cells transfected with shAKT2 assessed as late apoptotic cells at 9 uM by flow cytometry analysis (reference value: 2.90%); assay type: functional
HaCaT [9] = test: Induction of apoptosis in human HaCaT cells transfected with shAKT1 assessed as viable cells at 9 uM by flow cytometry analysis (reference value: 77.12%); assay type: functional; conditions: read-out: Activity
HaCaT [10] = test: Induction of apoptosis in human HaCaT cells transfected with shAKT3 assessed as late apoptotic cells at 9 uM by flow cytometry analysis (reference value: 17.55%); assay type: functional
HaCaT [11] = test: Induction of apoptosis in human HaCaT cells assessed as necrotic cells at 9 uM by flow cytometry analysis (reference value: 3.17%); assay type: functional
SMMC-7721 = test: Antiproliferative activity against human SMMC-7721 cells assessed as inhibition of cell growth incubated for 72 hrs by SRB method; assay type: functional, cell-based; conditions: SMMC-7721, 72 h
HaCaT [12] = test: Induction of apoptosis in human HaCaT cells assessed as early apoptotic cells at 9 uM by flow cytometry analysis (reference value: 0.54%); assay type: functional
OS-RC-2 = test: Antiproliferative activity against human OS-RC-2 cells assessed as inhibition of cell growth incubated for 72 hrs by SRB method; assay type: functional, cell-based; conditions: OS-RC-2, 72 h
786-0 [13] = test: Antitumor activity against human 786-0 cells xenografted in dosed BALB/c nude mouse assessed as tumor growth inhibition at 50 mg/kg, ig administered once daily for 22 days; assay type: functional; conditions: 786-0, po, 528 h, time 22 day, read-out: TGI
KHOS/NP [14] = test: Antiproliferative activity against human KHOS cells assessed as inhibition of cell growth incubated for 72 hrs by SRB method; assay type: functional, cell-based
HaCaT [15] = test: Induction of apoptosis in human HaCaT cells transfected with shAKT2 assessed as viable cells at 9 uM by flow cytometry analysis (reference value: 79.95%); assay type: functional; conditions: read-out: Activity
LNCaP = test: Antiproliferative activity against human LNCaP cells assessed as inhibition of cell growth incubated for 72 hrs by SRB method; assay type: functional, cell-based
KHOS/NP [16] = test: Antitumor activity against human KHOS cells xenografted in dosed BALB/c nude mouse assessed as tumor growth inhibition at 50 mg/kg, ig administered once daily for 22 days; assay type: functional; conditions: po, 528 h, time 22 day, read-out: TGI
HaCaT [17] = test: Induction of apoptosis in human HaCaT cells transfected with shAKT2 assessed as early apoptotic cells at 9 uM by flow cytometry analysis (reference value: 0.38%); assay type: functional
786-0 [18] = test: Antiproliferative activity against human 786-0 cells assessed as inhibition of cell growth incubated for 72 hrs by SRB method; assay type: functional, cell-based; conditions: 786-0, 72 h
HaCaT [19] = test: Induction of apoptosis in human HaCaT cells transfected with shAKT1 assessed as necrotic cells at 9 uM by flow cytometry analysis (reference value: 3.82%); assay type: functional
HaCaT [20] = test: Induction of apoptosis in human HaCaT cells transfected with shAKT1 assessed as early apoptotic cells at 9 uM by flow cytometry analysis (reference value: 0.54%); assay type: functional
HaCaT [21] = test: Antiproliferative activity against human HaCaT cells assessed as inhibition of cell growth incubated for 72 hrs by SRB assay; assay type: cell-based
HaCaT [22] = test: Induction of apoptosis in human HaCaT cells assessed as late apoptotic cells at 9 uM by flow cytometry analysis (reference value: 17.13%); assay type: functional
U-87 MG = test: Antiproliferative activity against human U-87MG cells assessed as inhibition of cell growth incubated for 72 hrs by SRB method; assay type: functional, cell-based, U-87MG ATCC
769-P = test: Antiproliferative activity against human 769-P cells assessed as inhibition of cell growth incubated for 72 hrs by SRB method; assay type: functional, cell-based
HaCaT [23] = test: Induction of apoptosis in human HaCaT cells transfected with shAKT2 assessed as late apoptotic cells at 9 uM by flow cytometry analysis (reference value: 16.77%); assay type: functional
MDA-MB-231 = test: Antiproliferative activity against human MDA-MB-231 cells assessed as inhibition of cell growth incubated for 72 hrs by SRB method; assay type: functional, cell-based; conditions: MDA-MB-231, 72 h
[24] = target: RAC-alpha serine/threonine-protein kinase (Homo sapiens, UniProt P31749); test: Inhibition of N-terminal GST-tagged human AKT1 (104 to 408 residues) expressed in baculovirus infected Sf21 cells incubated for 1 hr in presence of ATP by mobility shift assay
HGC-27 = test: Antiproliferative activity against human HGC-27 cells assessed as inhibition of cell growth incubated for 72 hrs by SRB assay; assay type: functional, cell-based; conditions: HGC-27, 72 h
hERG (KCNH2) = hERG (KCNH2) (Homo sapiens, UniProt Q12809); test: Inhibition of human ERG expressed in HEK293 cells at 3 uM by whole cell patch clamp method relative to control; assay type: cell-based; conditions: HEK293 cells expressing hERG
KHOS/NP [25] = test: Antiproliferative activity against human KHOS cells assessed as inhibition of cell growth incubated for 72 hrs by SRB assay; assay type: functional, cell-based
786-0 [26] = test: Antiproliferative activity against human 786-0 cells assessed as inhibition of cell growth incubated for 72 hrs by SRB assay; assay type: functional, cell-based; conditions: 786-0, 72 h

Chain of hERG (KCNH2) (Q12809 whole entry): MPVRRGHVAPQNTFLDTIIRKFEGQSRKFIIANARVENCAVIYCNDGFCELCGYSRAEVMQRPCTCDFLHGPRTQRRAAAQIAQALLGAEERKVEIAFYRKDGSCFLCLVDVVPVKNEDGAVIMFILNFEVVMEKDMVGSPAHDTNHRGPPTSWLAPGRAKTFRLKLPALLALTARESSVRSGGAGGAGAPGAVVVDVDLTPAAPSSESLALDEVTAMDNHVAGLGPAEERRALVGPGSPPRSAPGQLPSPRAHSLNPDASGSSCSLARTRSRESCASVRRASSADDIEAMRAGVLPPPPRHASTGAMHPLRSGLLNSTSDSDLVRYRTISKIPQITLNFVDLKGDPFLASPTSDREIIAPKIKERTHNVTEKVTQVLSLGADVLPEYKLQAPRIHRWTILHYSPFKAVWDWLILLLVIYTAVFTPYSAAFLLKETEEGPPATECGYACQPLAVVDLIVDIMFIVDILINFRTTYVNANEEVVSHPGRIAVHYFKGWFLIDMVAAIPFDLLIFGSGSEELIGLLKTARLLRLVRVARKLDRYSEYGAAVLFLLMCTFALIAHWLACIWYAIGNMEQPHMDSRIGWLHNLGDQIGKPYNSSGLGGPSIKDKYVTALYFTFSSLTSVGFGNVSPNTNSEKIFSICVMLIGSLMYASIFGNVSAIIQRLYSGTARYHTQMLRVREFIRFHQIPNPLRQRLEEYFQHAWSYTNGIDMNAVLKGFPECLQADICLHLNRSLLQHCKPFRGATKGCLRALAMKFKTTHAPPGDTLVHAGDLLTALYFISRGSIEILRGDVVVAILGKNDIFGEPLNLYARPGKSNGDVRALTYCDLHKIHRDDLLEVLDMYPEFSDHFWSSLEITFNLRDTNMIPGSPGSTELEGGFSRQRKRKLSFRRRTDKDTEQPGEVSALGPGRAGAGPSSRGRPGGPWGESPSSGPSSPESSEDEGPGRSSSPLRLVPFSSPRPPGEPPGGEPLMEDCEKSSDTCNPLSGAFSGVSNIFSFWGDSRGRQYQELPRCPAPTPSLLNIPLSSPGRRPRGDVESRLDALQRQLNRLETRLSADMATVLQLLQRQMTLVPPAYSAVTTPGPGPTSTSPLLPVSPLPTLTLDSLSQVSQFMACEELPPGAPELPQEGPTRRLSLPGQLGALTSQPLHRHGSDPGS
Chain of RAC-alpha serine/threonine-protein kinase (P31749 whole entry, the tested form may be a part): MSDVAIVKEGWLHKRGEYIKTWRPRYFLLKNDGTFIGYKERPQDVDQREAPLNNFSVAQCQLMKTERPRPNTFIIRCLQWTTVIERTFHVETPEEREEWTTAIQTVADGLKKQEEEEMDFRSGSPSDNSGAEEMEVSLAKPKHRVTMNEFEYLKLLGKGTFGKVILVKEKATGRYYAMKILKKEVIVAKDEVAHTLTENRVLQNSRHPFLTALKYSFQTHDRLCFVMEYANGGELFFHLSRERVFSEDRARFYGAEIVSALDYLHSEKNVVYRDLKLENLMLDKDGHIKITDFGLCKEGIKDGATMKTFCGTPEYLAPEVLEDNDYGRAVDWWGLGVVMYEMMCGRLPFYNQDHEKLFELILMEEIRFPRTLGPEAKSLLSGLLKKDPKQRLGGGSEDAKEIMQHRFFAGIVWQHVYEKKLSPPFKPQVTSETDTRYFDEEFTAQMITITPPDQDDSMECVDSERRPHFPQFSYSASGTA

NC1(C(=O)N[C@@H](CCO)c2ccc(Cl)cc2)CCN(c2nc[nH]c3nccc2-3)CC1 [CAPIVASERTIB]
IC50 (OVCAR-8): 4.48 µM
IC50 [1]: 2.32 µM
IC50 (A549): 23.7 µM
IC50 (NCI-H1975): 8.23 µM
IC50 (Bel-7402): 49.6 µM
IC50 (SK-OV-3): 6.32 µM
Activity (HaCaT [2]): Active
viability at 9 µM (HaCaT [3]): 44%
viability at 9 µM (HaCaT [4]): 46%
IC50 (HT-29): 36.9 µM
Activity (HaCaT [5]): 1.27%
IC50 (U-251): 14.2 µM
Activity (HaCaT [6]): 47.84%
Activity (HaCaT [7]): 6.23%
IC50 (HepG2): 6.7 µM
IC50 (PC-3): 82.6 µM
Activity (HaCaT [8]): 3.15%
viability at 9 µM (HaCaT [9]): 44.7%
Activity (HaCaT [10]): 46.52%
Activity (HaCaT [11]): 7.13%
IC50 (SMMC-7721): 84.1 µM
Activity (HaCaT [12]): 1.34%
IC50 (OS-RC-2): 53.4 µM
inhibition in vivo at 50 mg/kg (786-0 [13]): 47.1%
IC50 (KHOS/NP [14]): 40.4 µM
viability at 9 µM (HaCaT [15]): 70.3%
IC50 (LNCaP): 0.46 µM
inhibition in vivo at 50 mg/kg (KHOS/NP [16]): 33.9%
Activity (HaCaT [17]): 0.79%
IC50 (786-0 [18]): 23.3 µM
Activity (HaCaT [19]): 5.98%
Activity (HaCaT [20]): 1.44%
IC50 (HaCaT [21]): 4.2 µM
Activity (HaCaT [22]): 47.55%
IC50 (U-87 MG): 50.6 µM
IC50 (769-P): 10.8 µM
Activity (HaCaT [23]): 25.71%
IC50 (MDA-MB-231): 60.5 µM

Cn1nccc1-c1cc(F)c(C(=O)N[C@@H]2CNCC[C@H]2c2ccc(F)c(F)c2)cc1F
IC50 [24]: 0.0092 µM
IC50 (HGC-27): 1.45 µM
inhibition at 3 µM (hERG (KCNH2)): 27.2%
IC50 (KHOS/NP [25]): 18.4 µM
IC50 (786-0 [26]): 5.05 µM

Cn1nccc1-c1ccc(C(=O)N[C@@H]2CNCC[C@H]2c2ccc(F)c(F)c2)cc1F
IC50 [24]: 0.0027 µM
IC50 (HGC-27): 0.18 µM
inhibition at 3 µM (hERG (KCNH2)): 10.7%
IC50 (KHOS/NP [25]): 7.43 µM
IC50 (786-0 [26]): 0.95 µM

Cn1nccc1-c1ccc(C(=O)N[C@@H]2CNCC[C@H]2c2cc(F)cc(F)c2)cc1F
IC50 [24]: 0.0018 µM
IC50 (HGC-27): 0.15 µM
inhibition at 3 µM (hERG (KCNH2)): 26.4%
IC50 (KHOS/NP [25]): 7.27 µM
IC50 (786-0 [26]): 1.01 µM

Cn1nccc1-c1ccc(C(=O)N[C@@H]2CNCC[C@H]2c2cc(F)cc(F)c2)c(F)c1
IC50 [24]: 0.0046 µM
IC50 (HGC-27): 0.51 µM
inhibition at 3 µM (hERG (KCNH2)): 6.4%
IC50 (KHOS/NP [25]): 17.1 µM
IC50 (786-0 [26]): 2.22 µM

Cn1ncc(Cl)c1-c1cc(F)c(C(=O)N[C@@H]2CNCC[C@H]2c2ccc(F)c(F)c2)cc1F
IC50 [24]: 0.0489 µM

Cn1ncc(Br)c1-c1cc(F)c(C(=O)N[C@@H]2CNCC[C@H]2c2ccc(F)c(F)c2)c(Cl)c1
IC50 [24]: 0.137 µM
IC50 (HGC-27): 3.28 µM
IC50 (KHOS/NP [25]): 3.61 µM
IC50 (786-0 [26]): 3.21 µM

Cn1nccc1-c1ccc(C(=O)N[C@@H]2CNCC[C@H]2c2ccc(F)c(F)c2)cc1
IC50 (HaCaT [21]): 5.44 µM

Cn1nccc1-c1ccc(C(=O)N[C@@H]2CNCC[C@H]2c2cc(F)cc(F)c2)c(Cl)c1
IC50 [24]: 0.015 µM
IC50 (HGC-27): 1.24 µM
IC50 (KHOS/NP [25]): 11.8 µM
IC50 (786-0 [26]): 3.79 µM

Cn1ncc(Br)c1-c1cc(F)c(C(=O)N[C@@H]2CNCC[C@H]2c2ccc(F)c(F)c2)c(F)c1
IC50 [24]: 0.0957 µM
IC50 (HGC-27): 2.9 µM
IC50 (KHOS/NP [25]): 5.01 µM
IC50 (786-0 [26]): 3.56 µM
